Reference: patent US20110301079A1, “NEUROMEDIN U RECEPTOR AGONISTS AND USES THEREOF” (Instituto di Ricerche di Biologia Molecolare P. Angeletti …, priority 2007, published 2011)
Residues, ends and D or L forms follow the SMILES beside them. *: point of attachment. X1 = CC(C)CCC[C@@H](C)[C@H]1CC[C@H]2[C@@H]3CC=C4C[C@@H](OC(=O)C*)CC[C@]4(C)[C@H]3CC[C@]12C

Columns and labels:
dog NMUR2 = target: T1, dog NMUR2 (Canis lupus familiaris, UniProt A0A8I3MN59); test: FLIPR calcium mobilization assay, dog NMUR2 cell line; assay type: cell-based; conditions: for % Activity: dog NMUR2, maximum response at 1 μM compared to the human NMU-25 response at the same concentration
T1 construct: expressed in transfected cells
Text: (§1) Human, mouse or rat cDNAs encoding NMUR1 or NMUR2 (as described in Howard et al. Nature 406: 70-74 (2000) were subcloned in pcDNA5 (Invitrogen) and transfected into FLP-In CHO cells and HEK-293 FLP-In cells purchased from Invitrogen (Carlsbad, Calif.) using lipofectamine (Invitrogen). The Flp-In system allows integration and expression of a particular gene of interest at a specific genomic location utilizing the Flp recombinase from yeast. The transfected cells were selected by growth in medium containing 200 μg/mL hygromycin (Invitrogen). Populations were frozen at early passage numbers, and these stocks were used for further studies. Stable clones that expressed the mRNAs were identified functionally by FLIPR as well as by RT-PCR. […] Two different rodent NMUR1 cell lines were thus generated: one with the codon as predicted from the genomic databases and another cell line with an engineered methionine (ATG) as the start codon. The dog NMU receptors were also cloned from intestine RNA (NMUR1) and brain (NMUR2) and stable cell lines were generated as used for the human and rodent cell lines. […] To ensure high levels of expression in a heterologous system, a dog NMUR1 cell line was generated that contains an ATG as the start codon. Additionally, stable cell lines expressing the human receptors were generated in HEK-293/aeq 17 cells which stably express the aequorin gene under the CMV promoter. The human NMUR2 cDNA was cloned into pcDNA3.1 and human NMUR1 was subcloned into pIRES-puro (Clontech, Mountain View, Calif.), after transfection cells were selected in media containing G418 and either hygromycin (NMUR2) or puromycin (NMUR1).
(§2) The NMU receptors signal primarily through Gαq/11 proteins; therefore calcium mobilization assays can be utilized for functional activity.
(§3) Stable cell lines expressing human and or rodent NMUR1 or human NMUR2 receptors are plated at a density of 12,000 cells per well overnight on poly-lysine coated 384-well black-walled plates. The following day, the media is removed from the plates and the cells were subsequently loaded with Fluo-3 (Molecular Probes), a calcium sensitive dye, diluted in FLIPR buffer (1× Hank's buffered saline containing 20 mM HEPES, 0.1% BSA, 2.5 mM probenecid (Sigma) and 1.6 mM TR40). All reagents are from Invitrogen unless otherwise noted. Peptide stocks are resuspended in DMSO at a stock concentration of 2 mM and diluted in FLIPR buffer on the day of the experiment to a 4 μM working stock solution.
(§4) After a 90 minute incubation at room-temperature, cell plates are loaded onto a FLIPR (Molecular Devices) to monitor cellular fluorescence (excitation=488 nm; emission=540 nm) before and after compound/peptide addition. Eight to twelve point dose responses are tested on NMUR-expressing cell lines using FLIPR with 1 μM peptide as the highest dose. The response after peptide addition is taken as the maximum fluorescence units minus the fluorescence immediately prior to stimulation for each well. EC50 values are calculated using GraphPad Prism (San Diego, Calif.) software.
(§5) Percent activity refers to the maximum response at 1 μM compared to the human NMU-25 response at the same concentration.

mice = test: Acute subcutaneous administration of NMS analogs, daily food intake and body weight; assay type: in vivo; conditions: for food intake: lipidated analogs compared to NMS1, FIG. 10A; for body weight: lipidated analogs compared to NMS1, FIG. 10B
human NMUR2 = target: T2, human NMUR2 (Homo sapiens, UniProt Q9GZQ4); test: FLIPR calcium mobilization assay, human NMUR2-expressing cell line; assay type: cell-based; conditions: for % Activity: human NMUR2, maximum response at 1 μM compared to the human NMU-25 response at the same concentration
T2 construct: expressed in transfected cells; host or cells: FLP-In CHO cells and HEK-293 FLP-In cells (pcDNA5)
Text: as §1, §2, §3, §4, §5

dog NMUR1-ATG = test: FLIPR calcium mobilization assay, dog NMUR1-ATG cell line; assay type: cell-based; conditions: for EC50: FLIPR; for % Activity: maximum response at 1 μM compared to the human NMU-25 response at the same concentration
Text: as §1, §2, §3, §4, §5

mouse NMUR1-ATG = target: T3, mouse NMUR1-ATG (Mus musculus, UniProt O55040); test: FLIPR calcium mobilization assay, mouse NMUR1-ATG cell line; assay type: cell-based; conditions: for % Activity: maximum response at 1 μM compared to the human NMU-25 response at the same concentration
T3 construct: expressed in transfected cells; host or cells: FLP-In CHO cells and HEK-293 FLP-In cells (pcDNA5)
T3 sequence (O55040 1-428): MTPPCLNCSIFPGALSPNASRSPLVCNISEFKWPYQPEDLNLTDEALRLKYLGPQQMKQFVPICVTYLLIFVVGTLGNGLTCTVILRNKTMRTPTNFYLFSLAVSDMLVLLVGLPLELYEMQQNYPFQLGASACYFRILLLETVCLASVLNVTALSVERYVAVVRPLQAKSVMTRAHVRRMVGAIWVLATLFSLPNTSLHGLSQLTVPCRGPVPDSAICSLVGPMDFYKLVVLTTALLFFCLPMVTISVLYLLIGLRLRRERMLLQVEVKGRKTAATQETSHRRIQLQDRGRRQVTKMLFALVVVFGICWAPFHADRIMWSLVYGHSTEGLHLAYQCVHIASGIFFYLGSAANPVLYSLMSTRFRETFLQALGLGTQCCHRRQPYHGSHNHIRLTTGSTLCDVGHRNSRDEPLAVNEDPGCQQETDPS
Text: as §1, §2, §3, §4, §5

mouse NMUR2 = target: T4, mouse NMUR2 (Mus musculus, UniProt Q8BZ39); test: FLIPR calcium mobilization assay, mouse NMUR2 cell line; assay type: cell-based; conditions: for % Activity: mouse NMUR2, maximum response at 1 μM compared to the human NMU-25 response at the same concentration
T4 construct: expressed in transfected cells; host or cells: FLP-In CHO cells and HEK-293 FLP-In cells (pcDNA5)
Text: as §1, §2, §3, §4, §5

human NMUR1 = target: T5, human NMUR1 (Homo sapiens, UniProt Q9HB89); test: FLIPR calcium mobilization assay, human NMUR1-expressing cell line; assay type: cell-based; conditions: for % Activity: human NMUR1, maximum response at 1 μM compared to the human NMU-25 response at the same concentration
T5 construct: expressed in transfected cells; host or cells: FLP-In CHO cells and HEK-293 FLP-In cells (pcDNA5)
T5 sequence (Q9HB89 1-426): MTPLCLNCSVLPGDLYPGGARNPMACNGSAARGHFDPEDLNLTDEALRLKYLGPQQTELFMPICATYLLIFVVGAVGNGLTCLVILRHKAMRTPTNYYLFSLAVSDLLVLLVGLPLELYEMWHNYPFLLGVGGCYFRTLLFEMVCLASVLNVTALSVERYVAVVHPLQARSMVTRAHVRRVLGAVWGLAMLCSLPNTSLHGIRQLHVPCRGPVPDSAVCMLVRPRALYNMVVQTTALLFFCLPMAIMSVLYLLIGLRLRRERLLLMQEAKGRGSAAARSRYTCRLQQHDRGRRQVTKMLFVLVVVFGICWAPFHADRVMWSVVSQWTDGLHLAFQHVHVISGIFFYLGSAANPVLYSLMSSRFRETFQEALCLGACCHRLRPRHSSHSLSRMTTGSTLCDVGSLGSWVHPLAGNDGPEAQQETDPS
Text: as §1, §2, §3, §4, §5

T1 sequence (A0A8I3MN59 1-378): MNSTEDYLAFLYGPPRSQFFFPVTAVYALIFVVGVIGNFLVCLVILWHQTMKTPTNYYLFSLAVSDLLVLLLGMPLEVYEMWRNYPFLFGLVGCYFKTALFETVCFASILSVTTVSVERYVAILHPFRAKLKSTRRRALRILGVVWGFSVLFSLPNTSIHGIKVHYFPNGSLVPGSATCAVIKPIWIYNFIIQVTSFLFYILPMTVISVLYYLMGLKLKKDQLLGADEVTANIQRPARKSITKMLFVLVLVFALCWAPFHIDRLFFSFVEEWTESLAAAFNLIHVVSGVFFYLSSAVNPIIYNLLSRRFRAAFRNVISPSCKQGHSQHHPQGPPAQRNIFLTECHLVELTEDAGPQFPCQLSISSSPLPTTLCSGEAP
T2 sequence (Q9GZQ4 whole entry): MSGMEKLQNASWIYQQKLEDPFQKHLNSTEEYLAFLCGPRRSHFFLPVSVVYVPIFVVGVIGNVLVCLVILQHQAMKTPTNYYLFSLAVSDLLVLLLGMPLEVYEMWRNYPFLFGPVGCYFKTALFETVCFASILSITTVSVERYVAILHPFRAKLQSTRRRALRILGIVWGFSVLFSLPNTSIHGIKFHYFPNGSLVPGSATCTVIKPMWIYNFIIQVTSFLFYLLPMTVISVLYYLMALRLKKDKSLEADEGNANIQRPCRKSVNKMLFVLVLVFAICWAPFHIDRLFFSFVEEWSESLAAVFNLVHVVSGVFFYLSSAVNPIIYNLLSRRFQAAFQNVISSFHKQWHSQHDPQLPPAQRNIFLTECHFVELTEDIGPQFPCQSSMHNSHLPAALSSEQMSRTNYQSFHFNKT
T4 sequence (Q8BZ39 whole entry): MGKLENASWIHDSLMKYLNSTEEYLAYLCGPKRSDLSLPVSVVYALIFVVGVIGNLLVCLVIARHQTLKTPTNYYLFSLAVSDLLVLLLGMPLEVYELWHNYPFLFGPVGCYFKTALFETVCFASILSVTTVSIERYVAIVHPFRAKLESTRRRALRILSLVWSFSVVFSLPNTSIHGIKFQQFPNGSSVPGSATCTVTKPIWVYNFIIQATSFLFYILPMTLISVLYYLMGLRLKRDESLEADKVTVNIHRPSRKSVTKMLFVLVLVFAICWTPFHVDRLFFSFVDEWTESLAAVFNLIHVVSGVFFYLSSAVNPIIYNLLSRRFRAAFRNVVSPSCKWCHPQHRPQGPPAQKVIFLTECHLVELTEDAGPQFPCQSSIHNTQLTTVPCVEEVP

Row | SMILES | % Activity (dog NMUR2) [%] | food intake (mice) | body weight (mice) | % Activity (human NMUR2) [%] | EC50 (dog NMUR1-ATG) [nM] | % Activity (dog NMUR1-ATG) [%] | % Activity (mouse NMUR1-ATG) [%] | % Activity (mouse NMUR2) [%] | % Activity (human NMUR1) [%] | EC50 (dog NMUR2; dog NMUR2, FLIPR) [nM] | EC50 (human NMUR2; human NMUR2, FLIPR) [nM] | EC50 (mouse NMUR1-ATG; FLIPR) [nM] | EC50 (mouse NMUR2; mouse NMUR2, FLIPR) [nM] | EC50 (human NMUR1; human NMUR1, FLIPR) [nM]
1 | CC[C@H](C)[C@H](NC(=O)[C@H](CSCC(=O)O[C@H]1CC[C@@]2(C)C(=CC[C@H]3[C@@H]4CC[C@H]([C@H](C)CCCC(C)C)[C@@]4(C)CC[C@@H]32)C1)NC(C)=O)C(=O)N[C@@H](CC(C)C)C(=O)N[C@@H](CCC(N)=O)C(=O)N[C@@H](CCCNC(=N)N)C(=O)NCC(=O)N[C@@H](CO)C(=O)NCC(=O)N[C@H](C(=O)N[C@@H](C)C(=O)N[C@@H](C)C(=O)N[C@H](C(=O)N[C@@H](CC(=O)O)C(=O)N[C@@H](Cc1ccccc1)C(=O)N[C@H](C(=O)N[C@@H](CCCCN)C(=O)N[C@@H](CCCCN)C(=O)N[C@@H](CC(=O)O)C(=O)N[C@@H](Cc1c[nH]cn1)C(=O)N[C@H](C(=O)N[C@@H](C)C(=O)N[C@H](C(=O)N[C@@H](Cc1c[nH]c2ccccc12)C(=O)NCC(=O)N[C@@H](CCCNC(=N)N)C(=O)N1CCC[C@H]1C(=O)N[C@@H](Cc1ccccc1)C(=O)N[C@@H](Cc1ccccc1)C(=O)N[C@@H](CC(C)C)C(=O)N[C@@H](Cc1ccccc1)C(=O)N[C@@H](CCCNC(=N)N)C(=O)N1CCC[C@H]1C(=O)N[C@@H](CCCNC(=N)N)C(=O)N[C@@H](CC(N)=O)C(N)=O)[C@@H](C)O)[C@@H](C)O)[C@@H](C)O)C(C)C)[C@@H](C)O [NMS2] (Ac-C(X1)ILQRGSGTAAVDFTKKDHTATWGRPFFLFRPRN-NH2) | 84 | significantly reduce | significantly reduce | 16 | ≥ 1000 | 46 | 39 | 32 | 11 | – | – | – | – | –
2 | CCCCCCCCCCCCCCCC(=O)N[C@H](C(=O)N[C@@H](CC(C)C)C(=O)N[C@@H](CCC(N)=O)C(=O)N[C@@H](CCCNC(=N)N)C(=O)NCC(=O)N[C@@H](CO)C(=O)NCC(=O)N[C@H](C(=O)N[C@@H](C)C(=O)N[C@@H](C)C(=O)N[C@H](C(=O)N[C@@H](CC(=O)O)C(=O)N[C@@H](Cc1ccccc1)C(=O)N[C@H](C(=O)N[C@@H](CCCCN)C(=O)N[C@@H](CCCCN)C(=O)N[C@@H](CC(=O)O)C(=O)N[C@@H](Cc1c[nH]cn1)C(=O)N[C@H](C(=O)N[C@@H](C)C(=O)N[C@H](C(=O)N[C@@H](Cc1c[nH]c2ccccc12)C(=O)NCC(=O)N[C@@H](CCCNC(=N)N)C(=O)N1CCC[C@H]1C(=O)N[C@@H](Cc1ccccc1)C(=O)N[C@@H](Cc1ccccc1)C(=O)N[C@@H](CC(C)C)C(=O)N[C@@H](Cc1ccccc1)C(=O)N[C@@H](CCCNC(=N)N)C(=O)N1CCC[C@H]1C(=O)N[C@@H](CCCNC(=N)N)C(=O)N[C@@H](CC(N)=O)C(N)=O)[C@@H](C)O)[C@@H](C)O)[C@@H](C)O)C(C)C)[C@@H](C)O)[C@@H](C)CC [NMS5] (HELM PEPTIDE1{[CCCCCCCCCCCCCCCC(=O)[*:2]].I.L.Q.R.G.S.G.T.A.A.V.D.F.T.K.K.D.H.T.A.T.W.G.R.P.F.F.L.F.R.P.R.N.[am]}$$$$V2.0) | 100 | significantly reduce | significantly reduce | 93 | ≥ 1000 | 82 | 83 | 78 | 85 | 18.8 | 214 | 12.5 | 40.1 | 248
